Measurements taken from patent US20110308790A1, “IN SITU METHANOGENESIS MODELING AND RISK ANALYSIS” (CONOCOPHILLIPS COMPANY, priority 2010, published 2011).

Tested on: microbes in production water
Test: biomass control with NaOCl solution (viable count CFU/mL)
Format: cell-based
Details: 0.03-0.6% NaOCl, 23 hours, presence or absence of oxygen
Protocol: The procedures to test the effectiveness, and the minimum dose, of NaOCl that is required to eliminate biomass in the injection line and injection well-bore during the field biogasification process are the following. The initial population of microbes in production water, placed in tubes that were to be incubated under defined oxygen saturation conditions was determined either by direct counting of cells using a Petroff Hausser bacterial counting chamber, or by counting the colony forming units (CFU/mL) of microorganisms that developed on specialized media after incubation for specific period. The population of microbes that were present in the incubated tubes (also with added carbon source-coal and nutrient additions) was determined over time after methane was detected in the headspace of the tubes. Thereafter, the same tubes were amended with different concentrations (0.6%, 0.3%, 0.15%, 0.1%, 0.075%, 0.06%, 0.03% and 0%) of NaOCl solution followed by incubation of the tubes for 23 hours to allow the biomolecule-oxidizing action of the solution to come to appreciable completion. Immediately after this, the population of viable microbes (i.e. CFU/mL) in the NaOCl-amended tubes was determined by plating a specific volume of the culture on defined solid medium.

**Q.** OCl [NaOCl, sodium hypochlorite] was tested. Which “inactivation of microorganisms (viable CFU/mL)” value did it give?
**A.** Its value is “effective in inactiving microorganisms”.
